# Assay results as given in US20210106566A1, “PHARMACEUTICAL COMPOSITION FOR TREATING AND/OR PREVENTING PERIPHERAL NEUROPATHY OR SPINAL CORD INJURY” (NATIONAL UNIVERSITY CORPORATION NAGOYA UNIVERSITY, priority 2015, published 2021).
# Tests used:
# [1] = system: mouse sciatic nerve autologous transplantation model; assay: Mouse sciatic nerve autologous transplantation model: tibialis anterior muscle cross sections; assay type: in vivo; conditions: 30 mg/kg/day, 8 weeks after surgery
# Text: Adult male C57BL/6J mice (8 weeks old; 19.5-22.0 g) were purchased from Charles River. The mice were anesthetized with isoflurane and underwent gluteal muscle incision under a sterile condition to expose the sciatic nerve in the left leg. The sciatic nerve was cut at the following two sites (1) and (2): (1) the site 3 mm distal to the first bifurcation of biceps femoris (hereinafter referred to as proximal transection site) (2) the site 3 mm distal to the proximal transection site (hereinafter referred to as distal transection site) The excised nerve segment with a length of 3 mm was confirmed to be completely cut at the two sites. The perineurium was sutured with nylon thread (10-0 black) at the proximal transection site and the distal transection site under a microscope. The remaining thread was used as a marker for finding the nerve transection site in the sacrifice of the mice. In order to reduce DMSO toxicity, a solution of 60 mg/mL zonisamide in 100% DMSO was prepared and the solution was diluted in olive oil to give a solution of 3 mg/mL zonisamide in 5% DMSO. […] Myelin sheath formation in the sciatic nerve was analyzed in six mice in each group. […] The number and area of myelinated axons in the sciatic nerve were manually measured using ImageJ software in a blinded fashion. […]
# [2] = system: mouse sciatic nerve autologous transplantation model; assay: Mouse sciatic nerve autologous transplantation model: number and area of myelinated axons; assay type: in vivo; conditions: 30 mg/kg/day to the stomach, one week after surgery, section 0.7 mm distal to the distal transection site
# Text: Adult male C57BL/6J mice (8 weeks old; 19.5-22.0 g) were purchased from Charles River. The mice were anesthetized with isoflurane and underwent gluteal muscle incision under a sterile condition to expose the sciatic nerve in the left leg. The sciatic nerve was cut at the following two sites (1) and (2): (1) the site 3 mm distal to the first bifurcation of biceps femoris (hereinafter referred to as proximal transection site) (2) the site 3 mm distal to the proximal transection site (hereinafter referred to as distal transection site) The excised nerve segment with a length of 3 mm was confirmed to be completely cut at the two sites. The perineurium was sutured with nylon thread (10-0 black) at the proximal transection site and the distal transection site under a microscope. The remaining thread was used as a marker for finding the nerve transection site in the sacrifice of the mice. In order to reduce DMSO toxicity, a solution of 60 mg/mL zonisamide in 100% DMSO was prepared and the solution was diluted in olive oil to give a solution of 3 mg/mL zonisamide in 5% DMSO. […] Myelin sheath formation in the sciatic nerve was analyzed in six mice in each group. […] The number and area of myelinated axons in the sciatic nerve were manually measured using ImageJ software in a blinded fashion.
# [3] = system: severely crushed spinal cord model mice; assay: Severely crushed spinal cord model mice: rotarod test; assay type: in vivo, mouse
# Text: Female C57BL/6J mice (8 weeks old; 19.5-22.0 g) were purchased from Charles River. The female C57BL/6J mice were anesthetized by intraperitoneally administering pentobarbital sodium and underwent back incision under a sterile condition to perform laminectomy at the 10th thoracic vertebra. The spinal cord was crushed at 100 kdyn using a tip with a diameter of 1.35 mm on IH Spinal Cord Impactor. After the occurrence of hematoma in the spinal cord was confirmed under a microscope, the wound was closed and 1 ml of physiological saline was subcutaneously injected into the posterior neck region to prevent dehydration. The mice with spinal cord injury were separated into two groups in a blinded fashion. […] One day after surgery, motor function of mice in both groups was assessed using BMS score (Basso mouse scale; Li et. al. J Neurosurg Spine 4: 165-173 (2006)) in a blinded fashion to select the mice with BMS score of 1 or lower and consider them as severely crushed spinal cord model mice. […] The latency until a mouse fell off the rotarod (holding time, in seconds; a maximum latency of 300 seconds) was measured in the accelerating rotation mode with an initial speed of 2 rpm, an accelerated speed of 5 rpm/min, and a maximum speed of 40 rpm. The latency was measured 3 times at an interval of 10 minutes and the three measurements were averaged for assessment (FIG. 15).
# primary motor neurons = assay: Time-lapse imaging of axonal growth; assay type: cell-based, mouse
# Protocol: Primary cultured motor neurons were seeded in a 96-well plate at 6.0×10^3 cells/well in Sumilon neuron culture medium to induce neurite outgrowth. Phase-contrast images were taken every 8 hours for 3 days on IncuCyte ZOOM Live Cell Imaging System (Essen Bioscience). The neurite length was automatically analyzed with NeuroTrack software (IncuCyte).
structure (smiles),measurement,setting,value
"NS(=O)(=O)Cc1noc2ccccc12 [Zonisamide, 3-sulfamoylmethyl-1,2-benzisoxazole]",denervation atrophy of tibialis anterior muscle (cross-sectional area of muscle fibers),[1],promoted recovery from denervation atrophy
same,"area of axons, increase compared to the zonisamide non-administration group",[2],3.9 fold
same,number of axons,[2],unchanged
same,holding time on rotarod,"[3]; day 28 after surgery, 30 mg/kg/day intragastrically",135.3 ± 16.4 s
same,holding time on rotarod compared to the control group,[3]; days 21 and 28 after surgery,longer
same,"neurite outgrowth effect, time-lapse imaging","primary motor neurons; forty hours after zonisamide administration, FIG. 3",neurite outgrowth effect was observed
same,"neurite outgrowth effect, 10 μmol/L versus 1 μmol/L",primary motor neurons; throughout the observation period (3 days),higher in the 10 μmol/L zonisamide administration group than in the 1 μmol/L zonisamide administration group
